Measured values as given in US20090018134A1, “Compounds - 945” (AstraZeneca AB, priority 2007, published 2009).
pIC50: −log10 of the molar value.

molecular target: T1, mTOR (Homo sapiens, UniProt P42345); test: In Vitro mTOR Kinase Assay (Echo), Test (a)(ii); format: biochemical; settings: table of enzyme assay Test (a)(ii); read-out: Test (a)(ii) IC50
T1 construct: FLAG; made in house
Method in brief: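 Inhibition of truncated mTOR (1362-2549, FLAG-tagged, purified from stably transfected HEK293 cells) is measured as reduced AlphaScreen signal from a phospho-T389-recognising antibody bound to the biotinylated peptide product. Kinase incubation lasts 2 hours at room temperature. Potency is given as IC50.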

T1 sequence (P42345 1362-2549): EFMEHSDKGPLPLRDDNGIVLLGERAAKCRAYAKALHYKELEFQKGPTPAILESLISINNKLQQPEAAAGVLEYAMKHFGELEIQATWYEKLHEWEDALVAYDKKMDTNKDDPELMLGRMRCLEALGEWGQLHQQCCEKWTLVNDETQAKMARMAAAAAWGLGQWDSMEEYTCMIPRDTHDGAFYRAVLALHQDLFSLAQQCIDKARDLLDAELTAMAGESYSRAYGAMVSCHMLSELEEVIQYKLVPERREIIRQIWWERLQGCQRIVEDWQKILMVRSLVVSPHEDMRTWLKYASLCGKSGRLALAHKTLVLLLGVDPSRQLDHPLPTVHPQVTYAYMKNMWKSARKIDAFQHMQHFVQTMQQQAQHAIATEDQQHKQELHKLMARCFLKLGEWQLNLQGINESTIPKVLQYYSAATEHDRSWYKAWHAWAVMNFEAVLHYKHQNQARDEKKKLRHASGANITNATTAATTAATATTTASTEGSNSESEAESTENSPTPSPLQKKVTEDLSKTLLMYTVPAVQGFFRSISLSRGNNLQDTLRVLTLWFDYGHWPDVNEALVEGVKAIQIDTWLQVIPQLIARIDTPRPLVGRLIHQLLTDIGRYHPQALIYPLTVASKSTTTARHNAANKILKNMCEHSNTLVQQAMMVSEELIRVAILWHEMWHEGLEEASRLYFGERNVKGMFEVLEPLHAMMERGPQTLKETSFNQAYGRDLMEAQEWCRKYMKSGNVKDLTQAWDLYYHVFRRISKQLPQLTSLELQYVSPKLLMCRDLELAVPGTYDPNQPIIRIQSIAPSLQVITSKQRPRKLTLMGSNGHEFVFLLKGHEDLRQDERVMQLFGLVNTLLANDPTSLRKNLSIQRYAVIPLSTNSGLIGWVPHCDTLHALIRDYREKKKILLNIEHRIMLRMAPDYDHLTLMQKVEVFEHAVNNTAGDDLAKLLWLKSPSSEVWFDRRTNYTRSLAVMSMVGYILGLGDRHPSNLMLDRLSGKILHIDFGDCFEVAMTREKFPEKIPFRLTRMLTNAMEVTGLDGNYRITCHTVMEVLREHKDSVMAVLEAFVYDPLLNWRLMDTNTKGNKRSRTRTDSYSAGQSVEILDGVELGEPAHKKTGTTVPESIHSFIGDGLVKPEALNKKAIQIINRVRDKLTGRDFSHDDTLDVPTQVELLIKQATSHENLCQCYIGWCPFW

pIC50 | SMILES
8.07 | CCNC(=O)Nc1ccc(-c2nc(N3CCOC[C@@H]3C)cc(C3(S(=O)(=O)c4ccc(C#N)cc4)CC3)n2)cc1 [Example 77b, 3-[4-[4-[1-(4-cyanophenyl)sulfonylcyclopropyl]-6-[(3S)-3-methylmorpholin-4-yl]pyrimidin-2-yl]phenyl]-1-ethylurea]
8.36 | C[C@H]1COCCN1c1cc(C2(S(=O)(=O)c3ccc(C#N)cc3)CC2)nc(-c2ccc(NC(=O)NCCO)cc2)n1 [Example 77c, 1-[4-[4-[1-(4-cyanophenyl)sulfonylcyclopropyl]-6-[(3S)-3-methylmorpholin-4-yl]pyrimidin-2-yl]phenyl]-3-(2-hydroxyethyl)urea]
8.00 | C[C@H]1COCCN1c1cc(C2(S(=O)(=O)c3ccc(C#N)cc3)CC2)nc(-c2ccc(NC(=O)NCC(F)F)cc2)n1 [Example 77d, 1-[4-[4-[1-(4-cyanophenyl)sulfonylcyclopropyl]-6-[(3S)-3-methylmorpholin-4-yl]pyrimidin-2-yl]phenyl]-3-(2,2-difluoroethyl)urea]
8.29 | C[C@H]1COCCN1c1cc(C2(S(=O)(=O)c3ccc(C#N)cc3)CC2)nc(-c2ccc(NC(=O)NCCF)cc2)n1 [Example 77e, 1-[4-[4-[1-(4-cyanophenyl)sulfonylcyclopropyl]-6-[(3S)-3-methylmorpholin-4-yl]pyrimidin-2-yl]phenyl]-3-(2-fluoroethyl)urea]
8.04 | C[C@H]1COCCN1c1cc(C2(S(=O)(=O)c3ccc(C#N)cc3)CC2)nc(-c2ccc(NC(=O)Nc3cnn(C)c3)cc2)n1 [Example 77f, 1-[4-[4-[1-(4-cyanophenyl)sulfonylcyclopropyl]-6-[(3S)-3-methylmorpholin-4-yl]pyrimidin-2-yl]phenyl]-3-(1-methylpyrazol-4-yl)urea]
7.38 | Cc1nc(C)c(S(=O)(=O)C2(c3cc(N4CCOC[C@@H]4C)nc(-c4ccc(NC(=O)NC5CC5)cc4)n3)CC2)s1 [Example 78, 3-Cyclopropyl-1-[4-[4-[1-[(2,4-dimethyl-1,3-thiazol-5-yl)sulfonyl]cyclopropyl]-6-[(3S)-3-methylmorpholin-4-yl]pyrimidin-2-yl]phenyl]urea]
7.82 | CNC(=O)Nc1ccc(-c2nc(N3CCOC[C@@H]3C)cc(C3(S(=O)(=O)c4sc(C)nc4C)CC3)n2)cc1 [Example 78a, 1-[4-[4-[1-[(2,4-dimethyl-1,3-thiazol-5-yl)sulfonyl]cyclopropyl]-6-[(3S)-3-methylmorpholin-4-yl]pyrimidin-2-yl]phenyl]-3-methylurea]
7.48 | CCNC(=O)Nc1ccc(-c2nc(N3CCOC[C@@H]3C)cc(C3(S(=O)(=O)c4sc(C)nc4C)CC3)n2)cc1 [Example 78b, 3-[4-[4-[1-[(2,4-dimethyl-1,3-thiazol-5-yl)sulfonyl]cyclopropyl]-6-[(3S)-3-methylmorpholin-4-yl]pyrimidin-2-yl]phenyl]-1-ethylurea]
7.68 | Cc1nc(C)c(S(=O)(=O)C2(c3cc(N4CCOC[C@@H]4C)nc(-c4ccc(NC(=O)NCCO)cc4)n3)CC2)s1 [Example 78c, 1-[4-[4-[1-[(2,4-dimethyl-1,3-thiazol-5-yl)sulfonyl]cyclopropyl]-6-[(3S)-3-methylmorpholin-4-yl]pyrimidin-2-yl]phenyl]-3-(2-hydroxyethyl)urea]
7.76 | Cc1nc(C)c(S(=O)(=O)C2(c3cc(N4CCOC[C@@H]4C)nc(-c4ccc(NC(=O)NCC(F)F)cc4)n3)CC2)s1 [Example 78d, 3-(2,2-difluoroethyl)-1-[4-[4-[1-[(2,4-dimethyl-1,3-thiazol-5-yl)sulfonyl]cyclopropyl]-6-[(3S)-3-methylmorpholin-4-yl]pyrimidin-2-yl]phenyl]urea]
7.62 | Cc1nc(C)c(S(=O)(=O)C2(c3cc(N4CCOC[C@@H]4C)nc(-c4ccc(NC(=O)NCCF)cc4)n3)CC2)s1 [Example 78e, 1-[4-[4-[1-[(2,4-dimethyl-1,3-thiazol-5-yl)sulfonyl]cyclopropyl]-6-[(3S)-3-methylmorpholin-4-yl]pyrimidin-2-yl]phenyl]-3-(2-fluoroethyl)urea]
7.54 | Cc1nc(C)c(S(=O)(=O)C2(c3cc(N4CCOC[C@@H]4C)nc(-c4ccc(NC(=O)Nc5cnn(C)c5)cc4)n3)CC2)s1 [Example 78f, 1-[4-[4-[1-[(2,4-dimethyl-1,3-thiazol-5-yl)sulfonyl]cyclopropyl]-6-[(3S)-3-methylmorpholin-4-yl]pyrimidin-2-yl]phenyl]-3-(1-methylpyrazol-4-yl)urea]
7.73 | C[C@H]1COCCN1c1cc(C2(S(=O)(=O)CCC(C)(C)O)CC2)nc(-c2ccc(NC(=O)NC3CC3)cc2)n1 [Example 79, 3-Cyclopropyl-1-[4-[4-[1-(3-hydroxy-3-methylbutyl)sulfonylcyclopropyl]-6-[(3S)-3-methylmorpholin-4-yl]pyrimidin-2-yl]phenyl]urea]
7.65 | CNC(=O)Nc1ccc(-c2nc(N3CCOC[C@@H]3C)cc(C3(S(=O)(=O)CCC(C)(C)O)CC3)n2)cc1 [Example 79a, 1-[4-[4-[1-(3-hydroxy-3-methylbutyl)sulfonylcyclopropyl]-6-[(3S)-3-methylmorpholin-4-yl]pyrimidin-2-yl]phenyl]-3-methylurea]
7.96 | C[C@H]1COCCN1c1cc(C2(S(=O)(=O)CCC(C)(C)O)CC2)nc(-c2ccc(NC(=O)NCCO)cc2)n1 [Example 79b, 3-(2-hydroxyethyl)-1-[4-[4-[1-(3-hydroxy-3-methylbutyl)sulfonylcyclopropyl]-6-[(3S)-3-methylmorpholin-4-yl]pyrimidin-2-yl]phenyl]urea]
7.79 | C[C@H]1COCCN1c1cc(C2(S(=O)(=O)CCC(C)(C)O)CC2)nc(-c2ccc(NC(=O)NCCF)cc2)n1 [Example 79d, 3-(2-fluoroethyl)-1-[4-[4-[1-(3-hydroxy-3-methylbutyl)sulfonylcyclopropyl]-6-[(3S)-3-methylmorpholin-4-yl]pyrimidin-2-yl]phenyl]urea]
7.59 | C[C@H]1COCCN1c1cc(C2(S(=O)(=O)CCC(C)(C)O)CC2)nc(-c2ccc(NC(=O)Nc3cnn(C)c3)cc2)n1 [Example 79e, 1-[4-[4-[1-(3-hydroxy-3-methylbutyl)sulfonylcyclopropyl]-6-[(3S)-3-methylmorpholin-4-yl]pyrimidin-2-yl]phenyl]-3-(1-methylpyrazol-4-yl)urea]
7.40 | CCNC(=O)Nc1ccc(-c2nc(N3CCOC[C@@H]3C)cc(C3(S(=O)(=O)CCC(C)(C)O)CC3)n2)cc1 [Example 79f, 1-ethyl-3-[4-[4-[1-(3-hydroxy-3-methylbutyl)sulfonylcyclopropyl]-6-[(3S)-3-methylmorpholin-4-yl]pyrimidin-2-yl]phenyl]urea]
7.71 | Cc1nc(S(=O)(=O)C2(c3cc(N4CCOC[C@@H]4C)nc(-c4ccc(NC(=O)NCC(F)F)cc4)n3)CC2)sc1C [Example 80, 3-(2,2-Difluoroethyl)-1-[4-[4-[1-[(4,5-dimethyl-1,3-thiazol-2-yl)sulfonyl]cyclopropyl]-6-[(3S)-3-methylmorpholin-4-yl]pyrimidin-2-yl]phenyl]urea]
7.84 | Cc1nc(S(=O)(=O)C2(c3cc(N4CCOC[C@@H]4C)nc(-c4ccc(NC(=O)NCCF)cc4)n3)CC2)sc1C [Example 80a, 1-[4-[4-[1-[(4,5-dimethyl-1,3-thiazol-2-yl)sulfonyl]cyclopropyl]-6-[(3S)-3-methylmorpholin-4-yl]pyrimidin-2-yl]phenyl]-3-(2-fluoroethyl)urea]
